The source of these data is article PMC2848328 (The Journal of biological chemistry, 2006).

The target of this assay is T1, AMAN-2 (F58H1.1; Golgi α-mannosidase II) (Caenorhabditis elegans, UniProt Q2PJ74).
T1 sequence (Q2PJ74 125-1145): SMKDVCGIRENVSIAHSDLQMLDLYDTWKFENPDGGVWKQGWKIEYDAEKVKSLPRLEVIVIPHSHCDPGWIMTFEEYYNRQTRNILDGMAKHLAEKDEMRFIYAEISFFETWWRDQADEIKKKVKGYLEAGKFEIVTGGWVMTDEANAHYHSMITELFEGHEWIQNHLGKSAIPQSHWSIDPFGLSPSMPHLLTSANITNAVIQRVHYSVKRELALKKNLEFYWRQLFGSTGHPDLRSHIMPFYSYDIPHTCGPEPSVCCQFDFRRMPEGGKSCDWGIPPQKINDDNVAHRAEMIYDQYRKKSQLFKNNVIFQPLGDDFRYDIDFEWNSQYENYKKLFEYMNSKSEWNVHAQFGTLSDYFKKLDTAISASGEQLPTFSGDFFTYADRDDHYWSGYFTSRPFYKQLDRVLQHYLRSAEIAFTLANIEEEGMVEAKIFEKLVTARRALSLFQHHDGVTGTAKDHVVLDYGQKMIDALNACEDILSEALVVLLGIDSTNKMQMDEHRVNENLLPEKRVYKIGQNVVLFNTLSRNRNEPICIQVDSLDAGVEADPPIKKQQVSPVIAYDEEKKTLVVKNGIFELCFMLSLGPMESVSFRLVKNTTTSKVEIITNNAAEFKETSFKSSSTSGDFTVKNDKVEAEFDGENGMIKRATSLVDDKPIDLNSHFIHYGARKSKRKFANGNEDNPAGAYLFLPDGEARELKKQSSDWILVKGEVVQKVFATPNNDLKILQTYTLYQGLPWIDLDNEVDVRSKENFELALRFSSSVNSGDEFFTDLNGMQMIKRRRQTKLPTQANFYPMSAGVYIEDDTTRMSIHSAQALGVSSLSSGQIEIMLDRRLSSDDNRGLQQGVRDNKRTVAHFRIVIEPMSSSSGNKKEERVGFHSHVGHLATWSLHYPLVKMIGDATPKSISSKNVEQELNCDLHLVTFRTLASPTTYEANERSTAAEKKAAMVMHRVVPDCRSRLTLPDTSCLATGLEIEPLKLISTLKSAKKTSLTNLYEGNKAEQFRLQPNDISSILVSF
Put plainly: inhibition of p-nitrophenyl-α-mannoside hydrolysis, A405. Type of assay: biochemical. As to conditions: read-out: % inhibition at 1 mM.

Broadly, the inhibition is the change of the read-out against control, counted positive when it falls. Turning to `OC[C@H]1NC[C@@H](O)[C@@H](O)[C@@H]1O` [deoxymannojirimycin], the inhibition at 1000 µM was ~45%.
